Molecular target: T1, Androgen Receptor (AR) (Homo sapiens, UniProt P10275, T878A)
T1 construct: endogenous in cells; host or cells: LNCaP
T1 sequence (P10275 1-920 T878A): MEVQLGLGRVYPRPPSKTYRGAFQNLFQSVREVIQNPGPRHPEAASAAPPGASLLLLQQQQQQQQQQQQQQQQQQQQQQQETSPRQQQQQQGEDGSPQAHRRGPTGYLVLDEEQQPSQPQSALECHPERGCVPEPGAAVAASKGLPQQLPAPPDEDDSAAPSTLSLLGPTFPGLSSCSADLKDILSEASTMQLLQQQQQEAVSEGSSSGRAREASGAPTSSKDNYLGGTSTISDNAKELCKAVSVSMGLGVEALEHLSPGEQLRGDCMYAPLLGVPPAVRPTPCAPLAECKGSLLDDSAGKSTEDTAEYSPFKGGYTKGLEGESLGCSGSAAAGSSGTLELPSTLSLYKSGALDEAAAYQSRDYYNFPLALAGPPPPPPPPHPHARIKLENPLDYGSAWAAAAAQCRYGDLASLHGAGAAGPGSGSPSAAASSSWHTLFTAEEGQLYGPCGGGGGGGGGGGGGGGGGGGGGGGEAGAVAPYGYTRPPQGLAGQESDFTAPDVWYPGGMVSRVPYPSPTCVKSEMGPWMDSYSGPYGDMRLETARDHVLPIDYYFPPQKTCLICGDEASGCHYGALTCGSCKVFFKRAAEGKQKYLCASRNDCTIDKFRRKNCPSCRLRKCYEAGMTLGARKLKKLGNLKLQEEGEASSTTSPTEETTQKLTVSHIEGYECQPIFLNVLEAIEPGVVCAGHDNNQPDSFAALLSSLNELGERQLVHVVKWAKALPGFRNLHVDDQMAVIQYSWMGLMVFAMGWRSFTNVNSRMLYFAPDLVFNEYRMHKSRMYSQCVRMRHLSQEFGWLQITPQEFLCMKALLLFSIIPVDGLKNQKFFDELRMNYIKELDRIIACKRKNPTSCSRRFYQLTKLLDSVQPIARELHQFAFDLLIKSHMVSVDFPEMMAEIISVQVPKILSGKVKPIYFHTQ
Test: Measurement of AR protein degradation in LNCaP cells by Western blotting
Assay type: cell-based
Conditions: 20 hours, LNCaP cells, read-out: AR degradation in LNCaP cells (%)
Protocol: The amount of AR protein present in LNCaP or VCaP cells was measured after treating them with the synthesized compound. The amount of AR protein was measured using Western blotting. The protocol for the experiments using LNCaP or VCaP cells was as follows.
[Culture] LNCaP cells were resuspended in RPMI1640 medium + HEPES (Hyclone, SH30255.01), 10% FBS (Hyclone, SV30207.02), and 1% Penicillin-streptomycin (Welgene, LS 202-02). 3 x 10^5 cells/mL were seeded in 12-well plates (1 mL per well) and cultured for 3 days. VCaP cells were resuspended in IMDM MEDIUM (Hyclone, SH30228.01), 20% FBS (Hyclone, SV30207.02), and 1% Penicillin-streptomycin (Welgene, LS 202-02), seeded at 9 x 10^5/mL in 1 mL per 12-well plate, and cultured for 3 days.
[Compound Treatment] 10 µL of 100x stock (e.g., 0.1, 1, 10 µM) compound solution at the final compound treatment concentration (e.g., 0.001, 0.01, 0.1 µM) was added to each well in 1 mL media, and cells were harvested after 20 hours. For DC50 measurement, 100x stock (0.01, 0.1, 1, 10, 100, 1000 µM) compound solutions at the final compound treatment concentration (0.0001, 0.001, 0.01, 0.1, 1, 10 µM) were used.
[Cell lysis] The cell pellet was suspended using 1% SDS lysis buffer (50 mM Tris, 1 mM EDTA, 1% SDS, pH 8.0, 0.5 mM PMSF, 1x Protease/Phosphatase inhibitor Cocktail (Cell Signaling Technology, 5872S)), and sonication (70% AMP, 10 cycles (30 sec ON/59 sec OFF)) was performed. After centrifugation at 4°C and 20,000 g for 20 minutes, the cell lysate was obtained and transferred to a new tube.
[Protein Quantification] A BCA protein assay (SMART™ BCA Protein Assay Kit, iNtRON Biotechnology, 21071) was performed using a 96-well microplate. 5 µL of cell lysate and 5 µL of 1% SDS lysis buffer were added to each well of the 96-well plate, followed by an additional 200 µL of BCA reagent (Reagent A: Reagent B = 50:1). The wells were incubated at 37°C for 30 minutes and cooled to room temperature for 10 minutes. After shaking for 10 seconds, the absorbance was measured at a wavelength of 562 nm. The unknown protein concentration was determined using a BSA standard curve (0, 0.125, 0.25, 0.5, 1, 2 mg/mL). Western blotting samples were prepared by mixing cell lysate, 1% SDS lysis buffer, 4x NuPAGE™ LDS Sample buffer (Invitrogen, NP0008), and 10X NuPAGE™ Sample Reducing Agent (Invitrogen, NP0009) and boiling at 70°C for 10 minutes.
[Electrophoresis] 10 µg of protein sample was loaded into each well of a NuPAGE™ 4 to 12%, Bis-Tris, 1.0 mm Mini Protein Gel, 15-well, 17-well, or 26-well (Invitrogen, NP0323BOX, NP0329BOX, or WG1403BOX) and electrophoresed for 40 minutes using NuPAGE™MES SDS Running Buffer (Invitrogen, NP0002) at 200 V (constant V).
[Transfer] Transfer was performed for 15 or 18 minutes using the electrophoresed gel and the Trans-Blot® Turbo™ Transfer Starter System (Bio-RAD, #17001918, Mini Nitrocellulose) at 1.3 A (constant A) and 25 V (limit V). To confirm protein transfer, 15 mL of Ponceau S solution (Sigma, P7170-1L) was used to stain for 1 minute, and then washed to check the degree of transfer.
[Blocking] The membrane for AR and GAPDH detection was blocked with 5% skim milk/0.2% TBST (Skim milk: BD, 232100/ 20X TBS: Biosesang, TR2008-100-00/ 10% Tween 20 Solution: Bio-RAD, #161-0781) for 45 minutes.
[Antibodies and Detection] Primary AR antibody (Androgen Receptor: CST, 5153S) was mixed with 5% skim milk/0.2% TBST at a ratio of 1:1,000 and reacted at room temperature for 3 hours or at 4°C overnight. Primary GAPDH antibody (CST, 2118S) was mixed with 5% skim milk/0.2% TBST at a ratio of 1:2,000 and reacted at room temperature for 3 hours or at 4°C overnight. Afterwards, TBST (0.2% Tween 20) was used for washing three times every 5 minutes. Secondary antibody to AR antibody, Anti-rabbit IgG, HRP-linked Antibody (CST, 7074S), was mixed with 5% skim milk/0.2% TBST at a ratio of 1:5,000 and reacted at room temperature for 45 minutes. […]

Dmax at 0.01 µM (10 nM compound): 91%
Dmax at 0.1 µM (100 nM compound): 99%
Structure (SMILES): COc1cc(N2CCC(C(=O)Nc3ccc(OC4CCN(CC5CCN(c6ccc(NC7CCC(=O)NC7=O)cc6F)CC5)CC4)cn3)CC2)ccc1C#N (centres unmarked) [Example 13, 1-(4-cyano-3-methoxyphenyl)-N-(5-((1-((1-(4-((2,6-dioxopiperidin-3-yl)amino)-2-fluorophenyl)piperidin-4-yl)methyl)piperidin-4-yl)oxy)pyridin-2-yl)piperidine-4-carboxamide]

Reference: EP4772505A1, “COMPOUND FOR DEGRADING ANDROGEN RECEPTOR AND MEDICAL USE THEREOF” (Ubix Therapeutics, Inc., priority 2023, dated 2025)
